# “And” between values parts separate entries of the source, which are not always exact repeats. Identical values can stand only once.
# What was measured:
# [1] = biological target: T1, COX enzyme (Coxsackievirus B5, UniProt Q03053); test: Assay optimization - solvent with COX enzyme (1:10); assay type: biochemical, Enterovirus (COX)
# T1 construct: 3D structure modeling of enterovirus 3C protease with it substrate Camb2
# Method: Various solvents were tested in order to optimize substrate solubility and stability. […] All the solvents tested were prepared at 0-10% concentrations in 2× reaction buffer and the final concentrations tested were 0-5%. […] Camb 2 was added to the final 2× buffer. For 1,2-Propanediol and 1,3-Propanediol, Camb 2 was first dissolved in the solvent at the appropriate concentration. The solvent+camb2 was then added to 3× reaction buffer to make a final 2× reaction buffer+2 uM camb2. […]
# 1,3-Propanediol with COX enzyme (1:10):
# [2] = test system: 3C protease (EV assay); test: Assay optimization - solvent (EV assay, Camb 2); assay type: biochemical, Enterovirus; conditions: for effect on reaction rate: all concentrations tested
# Method: Various solvents were tested in order to optimize substrate solubility and stability. […] All the solvents tested were prepared at 0-10% concentrations in 2× reaction buffer and the final concentrations tested were 0-5%. […] Camb 2 was added to the final 2× buffer. For 1,2-Propanediol and 1,3-Propanediol, Camb 2 was first dissolved in the solvent at the appropriate concentration. The solvent+camb2 was then added to 3× reaction buffer to make a final 2× reaction buffer+2 uM camb2. All the experiments were performed in the TECAN Polarstar n=1 in triplicates.
# [3] = biological target: T2, Recombinant protease from enterovirus strain Echo (Echovirus 30, UniProt Q9WN78); test: Enterovirus assay optimization with recombinant Echo protease (plates, tubes, buffer, Na2SO4, substrate concentration, diluent); assay type: biochemical; conditions: for Positive control, Average / Positive control: substrate stock diluted 1:8 in this diluent, 0.25 uM final, analysis 5-10 min; for Positive control: single repetition
# T2 construct: Phosphoramidon was tested using the Echovirus 3C recombinant
# T2 sequence (Q9WN78 1550-1732): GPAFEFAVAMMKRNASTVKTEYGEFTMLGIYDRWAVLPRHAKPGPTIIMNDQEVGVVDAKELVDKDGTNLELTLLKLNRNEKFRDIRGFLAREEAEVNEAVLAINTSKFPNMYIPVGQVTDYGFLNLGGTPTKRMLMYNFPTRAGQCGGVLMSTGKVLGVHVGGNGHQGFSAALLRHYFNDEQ
# Method: • Inhibitor Cocktail: Inhibitors cocktail I10 • Enzyme dilution buffer: −25 mM HEPES pH 7.5, 150 mM NaCl, 1 mM EDTA, 10% Glycerol, 0.5 mg/ml BSA, 1M Sucrose, 0.1% Sodium azid. • 2× reaction buffer, Buffer B: 50 mM HEPES, 10 mM EDTA, 10 mM EGTA, 1.2M Na2SO4, sodium azide 0.1%, pH 8.5 • Artificial CSF: NaCl 125 mM, KCl 2.5 mM, MgCl 1 mM, NaH2PO4 1.25 mM, CaCl2 2 mM, Glucose 2.5 mM, NaHCO3 25 mM, 0.1% Sodium azide, HEPES 25 mM, pH 7.45. • Enzyme: Recombinant protease from enterovirus strain “Echo” [dilution 1:18 • Substrate: Camb-2.3, 1 mM, Camb-2.4, 2 mM. (Different batches for the same Camb2 sequence) • HEPES Buffer: HEPES 25 mM • NB tubes: Sigma Cat #Z666505 • Amber tubes: USA scientific Inc. Cat. 1620-2707 • 96 well Plate: Dark bottom NB plate—Greiner Cat. 655900
# • 1. Add artiCSF±HEPES buffer to plate • 2. Prepare 400 ul HEPES buffer±RB+substrate (camb2.3 and 2.4) in both amber and NB tubes. • 3. Add enzyme to wells • 4. Add HEPES buffer±RB+substrate to wells with multichannel pipette.
# The reaction buffer is a part of the enterovirus test kit of the invention. The camb-2 substrate is dissolved in the reaction buffer. The reaction buffer contains different salts to allow the tested enzyme to work at the optimal conditions. The current reaction buffer composition is: HEPES pH 7.5, 300 mM NaCl, 10 mM EDTA, 10 mM EGTA, 10% Glycerol, 1.8M Na2SO4, 0.1% Sodium azide. The amount of salt in the reaction buffer is high and allows optimal enzymatic activity. However, under these conditions, substrate solubility is affected. Thus, the reaction buffer was improved to increase substrate solubility without reducing enzymatic activity of the tested 3C protease.
# 300 mM NaCl and 10% glycerol was removed from the reaction buffer and several reduced concentrations of Na2SO4 (starting at 0.9M) were tested in order to determine the minimal salt requirements of the assay (Tables 31-34). Experiments were repeated at least three times by two different scientists.
# CSF sample was incubated with 50 nM Echo protease and 2× reaction buffer with 0.6M Na2SO4. Also included were 3 blanks and 9 positive control repetitions.
# The effect of reduction in substrate (camb2) concentration and increase in measurement time was tested. The experiment was performed at a final substrate (camb2.5) concentrations of 1, 0.5, 0.25 and 0.125 μM and data analysis was made at different time intervals: 1.5-5, 5-12 and 5-22 min (FIGS. 27A-C).
# Sodium sulfate generally has an ambivalent effect: it increase 3C protease activity and reduces substrate solubility. Once it was decided that the substrate concentration would be reduced to 0.25 uM and results analyzed at between 5-10 min, the Na2SO4 concentration was optimized. […] 0.6-0.4M Na2SO4 was tested under the new assay conditions.
# • Data analysis was performed between 5-10 min. • The assay activity was measured in triplicates by three scientists. The results in Table 51 are the average of the three triplicates.
# To examine the effect of substrate dilution in DMSO vs. DDW under the new assay conditions, substrate stock (1 mM in DMSO) was diluted 1:8 in DMSO or in DDW to yield the working stock. The working stocks were further diluted 1:250 in 2× RB for a concentration of 0.5 uM (0.25 uM final in the well).
# The assay activity was measured in triplicates by three scientists. The results in Table 52 are the average of the three triplicates.
# [4] = 1,2-propanediol 1% final, Table 50 Galaxy FLUOstar with nonbinding microplate
# [5] = 1,2-propanediol 2.5% final, Table 49 TECAN with nonbinding microplate
# [6] = 1,2-propanediol 2.5% final, Table 50 Galaxy FLUOstar with nonbinding microplate
# [7] = 1,2-propanediol 4% final, Table 49 TECAN with nonbinding microplate
# [8] = 1,2-propanediol 4% final, Table 50 Galaxy FLUOstar with nonbinding microplate
# [9] = 1,2-propanediol 5% final, Table 49 TECAN with nonbinding microplate
# [10] = 1,2-propanediol 5% final, Table 50 Galaxy FLUOstar with nonbinding microplate
# [11] = 1,3-propanediol 1% final, Table 47 GalaxyFLUOstar, second sub-table
# [12] = 1,3-propanediol 2.5% final, Table 47 GalaxyFLUOstar, second sub-table
# [13] = 1,3-propanediol 2.5% final, Table 48 TECAN with nonbiding plate
# [14] = 1,3-propanediol 4% final, Table 47 GalaxyFLUOstar, second sub-table
# [15] = 1,3-propanediol 4% final, Table 48 TECAN with nonbiding plate
# [16] = 1,3-propanediol 5% final, Table 47 GalaxyFLUOstar, first sub-table
# [17] = 1,3-propanediol 5% final, Table 47 GalaxyFLUOstar, second sub-table
# [18] = 1,3-propanediol 5% final, Table 48 TECAN with nonbiding plate
# [19] = Acetonitrile 0.5% final, Table 43 Experiment 2
# [20] = Acetonitrile 1% final, Table 42 Experiment 1
# [21] = Acetonitrile 1% final, Table 43 Experiment 2
# [22] = Acetonitrile 2.5% final, Table 42 Experiment 1
# [23] = Acetonitrile 4% final, Table 42 Experiment 1
# [24] = Acetonitrile 5% final, Table 42 Experiment 1
# [25] = Isopropanol 1% final, Table 39 Experiment 1
# [26] = Isopropanol 1% final, Table 40 Experiment 2
# [27] = Isopropanol 2.5% final, Table 39 Experiment 1
# [28] = Isopropanol 2.5% final, Table 40 Experiment 2
# [29] = Isopropanol 4% final, Table 39 Experiment 1
# [30] = Isopropanol 4% final, Table 40 Experiment 2
# [31] = Isopropanol 5% final, Table 39 Experiment 1
# [32] = Isopropanol 5% final, Table 40 Experiment 2
# T1 sequence (Q03053 1541-1723): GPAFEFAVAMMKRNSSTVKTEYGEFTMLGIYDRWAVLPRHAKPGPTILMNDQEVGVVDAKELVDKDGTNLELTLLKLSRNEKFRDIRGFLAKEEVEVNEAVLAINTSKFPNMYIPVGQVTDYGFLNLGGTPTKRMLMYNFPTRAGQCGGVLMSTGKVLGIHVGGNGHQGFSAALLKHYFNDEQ
structure (smiles),measurement,setting,value
"CC(O)CO (stereo not drawn) [1,2-propanediol, 1,2-Propanediol]",Reaction rate Average P.C,"[1]; 1,2-propanediol 1% final, Table 49 TECAN with nonbinding microplate",8588.13 RFU/min
same,% Loss,[1]; [4],9%
same,Reaction rate Average P.C,[1]; [4],5689.6 RFU/min
same,% Loss,[1]; [5],20%
same,Reaction rate Average P.C,[1]; [5],6521.1 RFU/min
same,% Loss,[1]; [6],22%
same,Reaction rate Average P.C,[1]; [6],4838.97 RFU/min
same,% Loss,[1]; [7],30%
same,Reaction rate Average P.C,[1]; [7],5013.13 RFU/min
same,% Loss,[1]; [8],30%
same,Reaction rate Average P.C,[1]; [8],4291.04 RFU/min
same,% Loss,[1]; [9],44%
same,Reaction rate Average P.C,[1]; [9],4509 RFU/min
same,% Loss,[1]; [10],47%
same,Reaction rate Average P.C,[1]; [10],3278.19 RFU/min
same,effect on enzymatic activity,[1]; all concentrations tested except 1%,inhibited enzymatic activity
"OCCCO [1,3-propanediol, 1,3-Propanediol]",Reaction rate Average P.C,"[1]; 1,3-propanediol 1% final, Table 47 GalaxyFLUOstar, first sub-table",3948.19 RFU/min
same,% Loss,[1]; [11],20%
same,Reaction rate Average P.C,[1]; [11],4125.89 RFU/min
same,Reaction rate Average P.C,"[1]; 1,3-propanediol 1% final, Table 48 TECAN with nonbiding plate",7620.53 RFU/min
same,% Loss,[1]; [12],11%
same,Reaction rate Average P.C,[1]; [12],4491.13 RFU/min
same,% Loss,[1]; [13],36%
same,Reaction rate Average P.C,[1]; [13],4681.05 RFU/min
same,% Loss,[1]; [14],42%
same,Reaction rate Average P.C,[1]; [14],2956.26 RFU/min
same,% Loss,[1]; [15],2%
same,Reaction rate Average P.C,[1]; [15],7238.7 RFU/min
same,% Loss,[1]; [16],10%
same,Reaction rate Average P.C,[1]; [16],3072.45 RFU/min
same,% Loss,[1]; [17],47%
same,Reaction rate Average P.C,[1]; [17],2389.47 RFU/min
same,% Loss,[1]; [18],20%
same,Reaction rate Average P.C,[1]; [18],5929.86 RFU/min
CC#N [Acetonitrile],% Loss,[2]; [19],7%
same,Reaction rate Average P.C,[2]; [19],1257.5 RFU/min
same,% Loss,[2]; [20],43%
same,Reaction rate Average P.C,[2]; [20],1106.6 RFU/min
same,% Loss,[2]; [21],25%
same,Reaction rate Average P.C,[2]; [21],1002.48 RFU/min
same,% Loss,[2]; [22],57%
same,Reaction rate Average P.C,[2]; [22],846.73 RFU/min
same,% Loss,[2]; [23],65%
same,Reaction rate Average P.C,[2]; [23],706.1 RFU/min
same,% Loss,[2]; [24],84%
same,Reaction rate Average P.C,[2]; [24],308.48 RFU/min
same,effect on reaction rate,[2],loss in reaction rate
O [DDW],reaction rate lower compared to DMSO,[3]; substrate diluted with DDW,25%
same,"Positive control, Average",[3],789.5 RFU/min
same,Positive control,[3],747 ± 68 RFU/min and 832 ± 64 RFU/min
C[S+](C)[O-] [DMSO],"Positive control, Average",[3],1005 RFU/min
same,Positive control,[3],1023 ± 36 RFU/min and 987 ± 126 RFU/min
same,Reaction rate Average P.C,"[2]; DMSO 1% final, Table 41",1270 RFU/min
same,% Loss,"[2]; DMSO 2.5% final, Table 41",7%
same,Reaction rate Average P.C,"[2]; DMSO 2.5% final, Table 41",1139.26 RFU/min
same,Reaction rate Average P.C,"[2]; DMSO 4% final, Table 41",1288 RFU/min
same,effect on reaction rate,[2],no loss in reaction rate
CC(C)O [Isopropanol],salt precipitation in reaction buffer,[2]; 4 and 5% final,salt precipitation formed
same,% Loss,[2]; [25],45%
same,Reaction rate Average P.C,[2]; [25],641.57 RFU/min
same,% Loss,[2]; [26],35%
same,Reaction rate Average P.C,[2]; [26],1047.42 RFU/min
same,% Loss,[2]; [27],3%
same,Reaction rate Average P.C,[2]; [27],1143.93 RFU/min
same,% Loss,[2]; [28],50%
same,Reaction rate Average P.C,[2]; [28],806 RFU/min
same,% Loss,[2]; [29],100%
same,Reaction rate Average P.C,[2]; [29],−2.7 RFU/min
same,% Loss,[2]; [30],42%
same,Reaction rate Average P.C,[2]; [30],676.0 RFU/min
same,% Loss,[2]; [31],100%
same,Reaction rate Average P.C,[2]; [31],−4.19 RFU/min
same,% Loss,[2]; [32],75%
same,Reaction rate Average P.C,[2]; [32],394.82 RFU/min
same,effect on reaction rate,[2],loss in reaction rate
